Assays:
[1] = test system: Escherichia coli; assay: Photodynamic antibacterial activity against ROS-induced stressed Escherichia coli ATCC 25922 assessed as log reduction in viable cells at 10 uM preincubated for 30 mins followed by 3.6 J/cm2 irradiation for 1 hr mins by fluorescence microscopy; format: functional
[2] = test system: Staphylococcus aureus; assay: Photodynamic antibacterial activity against Staphylococcus aureus ATCC 25923 assessed as log reduction in viable cells at 1 uM preincubated for 30 mins followed by immediate irradiation at 21 J/cm2 in presence of 50 mM KI by fluorescence microscopy; format: functional
[3] = test system: Escherichia coli; assay: Photodynamic antibacterial activity against Escherichia coli EC7 assessed as log reduction in viable cells at 5 uM preincubated for 30 mins followed by immediate irradiation at 63 J/cm2 in presence of 50 mM KI by fluorescence microscopy; format: functional
[4] = test system: Candida albicans; assay: Photodynamic antibacterial activity against Candida albicans PC31 assessed as log reduction in viable cells at 5 uM preincubated for 30 mins followed by immediate irradiation at 126 J/cm2 in presence of 50 mM KI by fluorescence microscopy; format: functional
[5] = test system: Nakaseomyces glabratus; assay: Photodynamic antifungal activity against Candida glabrata ATCC 15545 assessed as log reduction in viable cells at 1 uM in presence of 118 J/cm2 irradiation; format: functional
[6] = test system: Pseudomonas aeruginosa; assay: Photodynamic antibacterial activity against Pseudomonas aeruginosa PAO1 assessed as log reduction in viable cells at 2.5 uM preincubated for 30 mins followed by 171 J/cm'2 irradiation for 1 hr by confocal laser scanning microscopy; format: functional
[7] = test system: Mycolicibacterium smegmatis; assay: Photodynamic antibacterial activity against Mycobacterium smegmatis MC2 155 assessed as log reduction in viable cells at 0.5 uM in presence of 118 J/cm2 irradiation; format: functional, str. MC2 155
[8] = test system: Candida albicans; assay: Photodynamic antifungal activity against Candida albicans ATCC 90028 assessed as log reduction in viable cells at 1 uM in presence of 118 J/cm2 irradiation; format: functional
[9] = test system: Cryptococcus neoformans; assay: Photodynamic antifungal activity against Cryptococcus neoformans ATCC 6453 assessed as log reduction in viable cells at 0.5 uM in presence of 118 J/cm2 irradiation; format: functional
[10] = test system: dengue virus type 1; assay: Photodynamic antiviral activity against Dengue virus 1 infected in African green monkey Vero cells assessed as log reduction in viable cells at 0.1 uM in presence of 118 J/cm2 irradiation; format: functional
[11] = test system: Human adenovirus 5; assay: Photodynamic antiviral activity against Human adenovirus 5 infected in African green monkey Vero cells assessed as log reduction in viable cells at 5 uM in presence of 118 J/cm2 irradiation; format: functional
[12] = test system: Vesicular stomatitis virus; assay: Photodynamic antiviral activity against vesicular stomatitis virus NJ infected in African green monkey Vero cells assessed as log reduction in viable cells at 0.5 uM in presence of 118 J/cm2 irradiation; format: functional, Vesicular stomatitis New Jersey virus
[13] = test system: Escherichia coli; assay: Photodynamic antibacterial activity against ROS-induced stressed Escherichia coli ATCC 25922 assessed as log reduction in viable cells at 10 uM preincubated for 1 hr followed by 9.36 J/cm2 irradiation for 2 hrs mins by fluorescence microscopy; format: functional
[14] = test system: Escherichia coli; assay: Photodynamic antibacterial activity against Escherichia coli DH5alpha assessed as log reduction in viable cells 10 uM preincubated for 20 mins followed by 180 J/cm2 irradiation for 60 mins by fluorescence microscopy; format: functional, DH5[alpha]
[15] = test system: Staphylococcus aureus; assay: Photodynamic antibacterial activity against Staphylococcus aureus NRS11 assessed as log reduction in viable cells at 10 uM preincubated for 20 mins followed by 180 J/cm2 irradiation for 60 mins by fluorescence microscopy; format: functional
[16] = test system: Klebsiella pneumoniae; assay: Photodynamic antibacterial activity against Klebsiella pneumoniae subsp. pneumoniae ATCC 33495 assessed as log reduction in viable cells at 10 uM preincubated for 20 mins followed by 180 J/cm2 irradiation for 60 mins by fluorescence microscopy; format: functional
[17] = test system: Bacillus thuringiensis; assay: Photodynamic antibacterial activity against Bacillus thuringiensis NRS 1124 ATCC 19268 assessed as log reduction in viable cells at 10 uM preincubated for 20 mins followed by 180 J/cm2 irradiation for 60 mins by fluorescence microscopy; format: functional

CC(=O)OCC1c2c(C)c(Br)c(C)n2[B-](F)(F)[N+]2=C(C)C(Br)=C(C)C12 (configuration not stated)
log(activity) [1]: 5.5

CC1=CC(C)=[N+]2C1C(c1ccc(OCCC[N+](C)(C)C)cc1)c1c(C)cc(C)n1[B-]2(F)F (configuration not stated)
log(activity) [2]: 4.5 | log(activity) [3]: 6.5 | log(activity) [4]: 3.5

CC1=C(I)C(C)=[N+]2C1C(c1cc[n+](C)cc1)c1c(C)c(I)c(C)n1[B-]2(F)F (configuration not stated)
log(activity) [5]: 3 | log(activity) [6]: 7 | log(activity) [7]: 3 | log(activity) [8]: 5 | log(activity) [9]: 5 | log(activity) [10]: 6 | log(activity) [11]: 2 | log(activity) [12]: 5

CC(=O)OCC1c2c(C)c(I)c(C)n2[B-](F)(F)[N+]2=C(C)C(I)=C(C)C12 (configuration not stated)
log(activity) [1]: 5.5

CC1=C(Br)C(C)=[N+]2C1C(CC1(C)CCc3c(C)c(O)c(C)c(C)c3O1)c1c(C)c(Br)c(C)n1[B-]2(F)F (configuration not stated)
log(activity) [13]: 5.5

CC1=C(C)C2(OO)OC(C)(CC3c4c(C)c(Br)c(C)n4[B-](F)(F)[N+]4=C(C)C(Br)=C(C)C34)CCC2=C(C)C1=O (configuration not stated)
log(activity) [13]: 5.5

CC1=C(I)C(C)=[N+]2C1C(c1cc(CN(Cc3ccccn3)Cc3ccccn3)cc(CN(Cc3ccccn3)Cc3ccccn3)c1)c1c(C)c(I)c(C)n1[B-]2(F)F (configuration not stated)
log(activity) [14]: 3.5 | log(activity) [15]: 4.5 | log(activity) [16]: 2.2 | log(activity) [17]: 4.5

CC1=CC(C)=[N+]2C1C(c1ccc([N+](C)(C)C)cc1)c1c(C)cc(C)n1[B-]2(F)F (configuration not stated)
log(activity) [2]: 5 | log(activity) [3]: 3.5 | log(activity) [4]: 5.5

Source: ChEMBL document CHEMBL4251629, “BODIPYs to the rescue: Potential applications in photodynamic inactivation” (2018)
